Patent US20220362330A1, “Compositions and Methods for Increasing Epithelial Barrier Function” (The Board of Trustees of the Leland Stanford Junior …, priority 2019, published 2022)

Legend:
Type in all cases: in vivo, mice
[1] = system: vaginal microbiota / pro-inflammatory mediators; assay: Bacteria and inflammation in genital mucosa
Text: While prior clinical studies identified increased inflammation in the genital tracts of women using DMPA, the underlying mechanism for this effect had been undefined. Because DMPA increased genital mucosal permeability, it was posited DMPA increases inflammation by promoting entry of the vaginal microbiota into mucosal tissue.

[2] = system: desmocollin-1 (DSC1); assay: qRT-PCR of Dsc1 gene expression in vaginal tissue; conditions: progestin-treated mice vs mice in estrus
Description: (§1) To define progestin-mediated changes in mucosal permeability, vaginal tissue from mice in estrus, diestrus, or after DMPA or LNG treatment was used to measure expression of the desmosomal cadherins desmoglein-1a (DSG1a) and desmocollin-1 (DSC1).
(§2) Human ectocervical and murine vaginal tissues were immediately immersed in 1 mL of RNAlater® (Qiagen), stored for 24 h at 4° C., and stored long-term at −80° C. RNA isolated using the RNeasy Lipid Tissue Kit (Qiagen) using manufacturer's instructions was re-suspended in nuclease-free water and quantified using a NanoDrop spectrophotometer (Thermo Scientific). The following mouse primers were utilized: desmocollin 1 (Mm00496525_ml), desmoglein-1α (Mm00809994_s1), ephrinA3 (Mm01212723_g1) and pyruvate carboxylase (Mm00500992_ml) as housekeeping reference gene (all from Thermo Scientific). These human primers were used: desmoglein-1 (Hs00355084_m1) and glucose-6-phosphate isomerase (Hs00976711_m1) as a housekeeping reference gene. To define relative gene expression, 100 ng of RNA was mixed with TaqMan® RNA-to-Ct™ 1-Step Kit and adequate primer (final volume of 10 μL/well) using manufacturer's instructions (Life Technologies). qRT-PCR was performed using a Quantstudio3 Thermal Cycler, and data analyzed via Quanstudio Software (Applied Biosystems).

[3] = system: genital mucosal barrier; assay: Murine tissue permeability assay, low molecular weight fluorescent molecules given intravaginally; conditions: germ-free mice
[4] = system: genital mucosal barrier; assay: as above
Description: Effects of progestins on genital mucosal barrier permeability were evaluated by intravaginally (ivag) administering 457 Da and 70 KDa-sized fluorescent molecules to mice in estrus or diestrus-stage or after DMPA or LNG treatment. Mice were grouped as follows: untreated in estrus, untreated in diestrus, DMPA treated, or LNG treated. The mice were intravaginally administered a PBS solution containing Lucifer yellow (457 Da) and Texas-Red-conjugated dextran (70 KDa). Animals were euthanized 45 minutes later to assess vaginal tissue penetration of these molecules by confocal microscopy. […] Mucosal permeability was increased moderately by diestrus, but dramatically by DMPA or LNG. Conversely, permeability increases were negligible in estrus-stage mice and mice treated with MePRDL or DMPA and RU486. This indicates exogenous progestins increase genital mucosal permeability.
To evaluate mucosal permeability to low molecular weight molecules, indicated groups of mice were sedated, and 10 μL of a PBS solution containing 62.5 μg of dextran Texas-Red® (DR) (MW=70,000 Da) and 50 μg of Lucifer yellow CH, lithium salt (LY) (MW=457.2 Da) (both from Life Technologies) administered intravaginally. 45 minutes later, mice were euthanized, and excised vaginal tissue fixed in formaldehyde. Fixed tissue was embedded in agarose, and 200-300 μm specimens were sectioned with a vibratome. After counterstaining with 4,6-diamidino-2-phenylindole (DAPI), confocal microscopy images were acquired by sequential scanning to prevent fluorescence crossover.

[5] = system: desmoglein-1a (DSG1a); assay: qRT-PCR of Dsg1a gene expression in vaginal tissue; conditions: progestin-treated mice vs mice in estrus
Description: as §1, §2

[6] = DMPA-treated vs. estrus-stage mice

## CC(=O)O[C@]1(C(C)=O)CC[C@H]2[C@@H]3C[C@H](C)C4=CC(=O)CC[C@]4(C)[C@H]3CC[C@@]21C [DMPA]
[1]; [6]
  Gram-negative bacteria in the mucosa: more Gram-negative bacteria
  levels of pro-inflammatory mediators in the mucosa: higher levels of pro-inflammatory mediators
[1]; germ-free mice
  inflammation: not inflammation
[2]
  DSC1 gene expression in vaginal tissue: decrease gene expression levels
[3]
  permeability: increased permeability
[4]; confocal images, 45 minutes after ivag administration
  penetration of the 457 Da molecules into vaginal tissue: greatest penetration
[4]; mice, ivag Lucifer yellow (457 Da) and Texas-Red dextran (70 KDa), 45 minutes, confocal microscopy
  Mucosal permeability increase: dramatically
[5]
  DSG1a gene expression in vaginal tissue: decrease gene expression levels
